The record followed here is patent US20200375996A1, “METHOD OF TREATING NEURODEGENERATIVE DISORDERS BY RESCUING ALPHA-SYNUCLEIN TOXICITY” (D.E. Shaw Research, LLC, priority 2015, published 2020).

Data set [1] has as its system K63 linkages in human HEK-293 cells. As to the kind of experiment: Ubiquitin chain linkages in HEK-293 cells. In kind it is cell-based. To be noted: 5 μM for 12 hours, FIG. 13B. As to the method: (§1) Human HEK-293 or neuronal cells treated with the appropriate compounds, were washed twice with ice cold PBS and then 0.5 ml of Lysis buffer was added and cells were scraped off the 10 cm dish (1 ml for 15 cm).
(§2) Lysis buffer is 50 mM Tris/HCl pH 7.5, 1 mM EGTA, 1 mM EDTA, 0.5 or 1% (v/v) NP-40, 1 mM sodium orthovanadate, 50 mM NaF, 5 mM sodium pyrophosphate, 0.27 M sucrose, 10 mM sodium 2-glycerophosphate, 0.2 mM phenylmethylsulphonyl fluoride, 1 mM benzamidine, plus 100 mM iodoacetamide added fresh prior to lysis (weight powder, don't use a frozen stock solution) to inactivate deubiquitylase activities and add also pepstatin/aprotinin to inhibit proteases. Cell extracts were sonicated twice for 15 seconds each time and clarified by centrifugation at 14000 g for 15 min at 4° C. Supernatants were collected and filtered using a 0.45 uM MiniSart/Syringe. Next, protein concentrations were determined by Bradford procedure.
The avidity based K63 linkage sensor protein was based on Sims et. al, 2012. Briefly, avidity based K63 sensor Halo-fusion protein was expressed in an E. coli expression vector and covalently bound to Halo-tag beads [Magne® HaloTag® Beads, 20% Slurry; Cat #G7281]. […] The eluate is heated at 75° C. for 5 min and analysed by immuno-blotting using an anti-K63 linkage specific antibody (http://www.abcam.com/ubiquitin-linkage-specific-k63-epr8590-448-antibody-ab179434.html). […]

The subject of data set [2] is Sna3-GFP. As to the kind of experiment: Immunoblot analysis of Sna3-GFP polyubiquitination in WT and α-syn cells. To be noted: FIG. 11B. In kind it is cell-based, yeast. As for the experimental part:
(§3) Protein analysis was performed in NoTox and HiTox strains with the compound treatment at indicated concentrations. Log phase CSM/2% raffinose cultures were induced with 2% galactose for 5 hours with DMSO or the compounds. Cultures were normalized to cell density and cell pellets prepared for SDS-PAGE. Cell pellets were boiled in SDS-loading dye for 15′, centrifuged, and resolved by 4-12% SDS-PAGE. CPY western blots were performed using culture conditions as described above. An anti-Cpy antibody (Invitrogen, A6428) was used at 1:5,000. Post-ER:ER ratios were quantitated using an IRDye800 secondary antibody (Li-Cor Odyssey, Rockland Immunochemicals) and scanned with the Li-Cor Odyssey imaging system. Significance was determined using a one-way ANOVA and Tukey's test of significance. From the same gel, total protein was detected by coomassie staining. Both blots and coomassie-stained gels were scanned using the Li-Cor Odyssey imaging system and quantitated. Significance was determined using a one-way ANOVA with Tukey's test of significance.
In WT Sna3-GFP cells, log phase CSMRaf cultures were shifted to galactose for 5 hours in the presence or absence of the compounds. Cell pellets were lysed in SDS-loading dye and Sna3-GFP cleavage monitored by Western blotting with an anti-GFP antibody. […]
For orientation: Immunoblotting shows a protein as a band on a membrane.

For data set [3], the system named is K63 linkages in iPS derived human neurons. Nature of the data set: K63-Ub linkages in human iPS derived neuronal cultures (immunoblot). In kind it is cell-based. Particulars: 5 μM for 12 hours, FIG. 13A. As to the method:
as §1, §2
The avidity based K63 linkage sensor protein was based on Sims et. al, 2012. Briefly, avidity based K63 sensor Halo-fusion protein was expressed in an E. coli expression vector and covalently bound to Halo-tag beads [Magne® HaloTag® Beads, 20% Slurry; Cat #G7281]. […] After incubation, the beads were washed three times with 1 ml of Lysis buffer containing 500 mM NaCl and once with 0.5 ml of 10 mM Tris/HCl pH 8.0. […] The eluate is heated at 75° C. for 5 min and analysed by immuno-blotting using an anti-K63 linkage specific antibody (http://www.abcam.com/ubiquitin-linkage-specific-k63-epr8590-448-antibody-ab179434.html).
Pure neuronal cultures derived from human iPS cells were treated with DMSO, DES-2877, DES-4114 and #32 at 5 μM for 12 hours. […] Ubiquitylation site identification by mass spectrometry was performed as described Kim et al., (Systematic and quantitative assessment of the ubiquitin-modified proteome. Mol Cell. 2011; 44:325-340). and Sarraf et al., (Landscape of the PARKIN-dependent ubiquitylome in response to mitochondrial depolarization. Nature. 2013; 496:372-376).

Data set [4] deals with aSyn-expressing yeast cells. As to the kind of experiment: Morphological analysis of aSyn-expressing yeast cells. In kind it is cell-based. To be noted: 10 uM, galactose induction five hours, FIG. 10. As to the method:
Raffinose cultures of α-syn expressing yeast cells were grown up to the logarithmic phase in raffinose. Cultures were induced with galactose for five hours in the presence or absence of the indication concentration of the compounds. In the present example, the identified compounds were present at a concentration of 10 uM. Cells were centrifuged, media discarded, and then fixed with 4% paraformaldehyde in 1×PBS for 1 hr. The fixed culture was centrifuged, and the pellet resuspended in 0.4% paraformaldehyde in 1×PBS and kept at 4° C.

Data set [5] has as its system α-synuclein-expressing yeast. Nature of the data set: α-synuclein toxicity rescue in yeast (growth, OD600). Format: cell-based. Particulars: FIGS. 8A-8B. As to the method:
Yeast Strains and culturing: Yeast strains expressing alpha-synuclein have been described in Cooper at. al, 2006. (Cooper A A, et al. Alpha-synuclein blocks ER-Golgi traffic and Rab1 rescues neuron loss in Parkinson's models. Science. 2006 Jul. 21; 313:324) Strains express multiple copies of alpha-synculein for galactose-inducible expression. […] Yeast were cultured in complete synthetic media (CSM) and an appropriate dropout (lacking histidine or uracil) to maintain plasmids if required. For galactose-induction experiments, overnight cultures were grown in CSM/2% glucose to saturation and diluted 1:20 into CSM/2% raffinose for ˜2 generations. Cultures were then diluted into CSM/2% galactose at an optimum OD600 for the experiment (see ‘Growth assays’).
(§4) Yeast Growth assays: Starting cultures for all dose-response assays were based on strains initially constructed in the lab to maintain homogeneity across experiments. All growth assays were carried out in 384 well format. Source plates were assembled in 96 well plates using multichannel pipettes to dilute rows in 1.6-fold serial dilutions of CSMGal. To these dilution series containing 2× final concentration of compound, 2×OD600 culture (in CSMGal) was dispensed with a multichannel pipette to achieve a final drug/culture mix with the desired OD600 and drug concentration. For WT yeast, the final starting OD600 was 0.01. For α-syn, the final starting OD600 was 0.02. Drug concentration ranges varied depending on efficacy, growth inhibition, and solubility in media. A Tecan EvoFreedom liquid handling robot was then used to transfer culture from 96 to 384 well format with each well being represented four times. Final well volume was 35 μL. Plates were then incubated in humidified containers at 30° C. for either 24 or 40 hours. Plates were then read with a Tecan Saphire plate reader at OD600.
Raw OD600 values were transformed to “Relative Growth” in WT cells or “% Maximum Rescue” in α-syn experiments. In WT cells, the well background was subtracted and all values were then normalized to 100% for the untreated condition. In α-syn rescue experiments, the well background was subtracted and the maximum rescue in the particular experiment was normalized to 100%.

The subject of data set [6] is WT control yeast strain. As to the kind of experiment: Toxicity profile on WT control yeast strain (growth). Format: cell-based. To be noted: FIGS. 9A-9B. As to the method: as §4, with “A Tecan EvoFreedom liquid handling robot was then used to transfer culture from 96 to 384 well format with each well being represented four times. Final well volume was 35 μL. Plates were then incubated in humidified containers at 30° C. for either 24 or 40 hours.” left out
Raw OD600 values were transformed to “Relative Growth” in WT cells or “% Maximum Rescue” in α-syn experiments. […] All experimental data points were then calculated by (OD600Exp−OD600untreated/(OD600Max−OD600untreated)×100 to obtain rescue relative to maximum rescue observed. Dose-response curves were generated by nonlinear regression analysis using Prism Graphpad v. 6.0. In cases where the compounds began inhibiting growth, only points up to the maximum were used to fit the curve. Above that, points were directly connected and are always presented as dotted lines.

The subject of data set [7] is Carboxypeptidase Y (CPY). As to the kind of experiment: Western blot of Carboxypeptidase Y (CPY) trafficking. Format: cell-based, yeast. To be noted: FIG. 11D. As to the method: as §3

With `COc1cc(Cl)cc(/C=N/Nc2nc(Nc3ccc(C)cc3Br)nc(N3CCOCC3)n2)c1O` [DES-4114], the “K63 linkages in human HEK-293 cells” value in data set [1] is given as “modest increase”. Besides, in data set [2], the “polyubiquitinated Sna3-GFP” value was “increase”. Also, the “K63 linkages in iPS derived human neurons” value in data set [3] is on record as “modest increase”. The “morphology: vesicular intermediates in yeast cells” value in data set [4] is recorded as “accumulation of vesicular intermediates”. Besides, the “rescue of aSyn toxicity in yeast (in words)” value in data set [5] is on record as “most effective”. In data set [6], the “toxicity on WT control yeast strain (in words)” value was “least toxic among active analogs”. Also, the “accumulation of CPY trafficking intermediates en route to the vacuole” value in data set [7] is on record as “increase”.
